# pIC50, pKd: −log10 of the molar value. Structures can show the parent of a compound that is named as a salt. Where two headings read alike, the source gives them in different places.
# Key:
# CSF1R [1] = molecular target: T1, CSF1R (Homo sapiens, UniProt P07333); test: Competition binding assay, CSF1R Kd; parameters: made in house
# Procedure: (§1) Competition binding assays used herein were developed, validated and performed as described in Fabian et al., Nature Biotechnology 2005, 23, 329-336. Kinases were produced as fusions to T7 phage (See, Fabian et al. or WO04/015142) or alternatively, the kinases were expressed in HEK-293 cells and subsequently tagged with DNA for PCR detection (See, WO08/005310). For the binding assays, streptavidin-coated magnetic beads were treated with biotinylated affinity ligands for 30 min at room temperature to generate affinity resins. The liganded beads were blocked with excess biotin and washed with blocking buffer (SeaBlock (Pierce), 1% BSA, 0.05% Tween 20, 1 mM DTT) to remove unbound ligand and to reduce non-specific binding. Binding reactions were assembled by combining kinase, liganded affinity beads, and test compounds in 1× binding buffer (20% SeaBlock, 0.17×PBS, 0.05% Tween 20, 6 mM DTT). Test compounds were prepared as 100× stocks in DMSO and diluted into the aqueous environment. Kds were determined using an eleven point threefold serial dilutions. DMSO or control compounds were was added to control assays lacking a test compound. Primary screen assays were performed in polypropylene 384-well plates in a final volume of 20-40 μL, while Kd determinations were performed in polystyrene 96-well plates in a final volume of 135 μL. The assay plates were incubated at room temperature with shaking for 1 hour to allow the binding reactions to reach equilibrium, and the affinity beads were washed extensively with wash buffer (1×PBS, 0.05% Tween 20) to remove unbound protein. The beads were then resuspended in elution buffer (1×PBS, 0.05% Tween […] non-biotinylated affinity ligand) and incubated at room temperature with shaking for 30 min. The kinase concentration in the eluates was measured by quantitative PCR.
# PDGFRβ = molecular target: T2, PDGFRβ (Homo sapiens, UniProt P09619); test: Competition binding assay, PDGFRβ Kd
# T2 construct: made in house
# T2 sequence (P09619 33-1106): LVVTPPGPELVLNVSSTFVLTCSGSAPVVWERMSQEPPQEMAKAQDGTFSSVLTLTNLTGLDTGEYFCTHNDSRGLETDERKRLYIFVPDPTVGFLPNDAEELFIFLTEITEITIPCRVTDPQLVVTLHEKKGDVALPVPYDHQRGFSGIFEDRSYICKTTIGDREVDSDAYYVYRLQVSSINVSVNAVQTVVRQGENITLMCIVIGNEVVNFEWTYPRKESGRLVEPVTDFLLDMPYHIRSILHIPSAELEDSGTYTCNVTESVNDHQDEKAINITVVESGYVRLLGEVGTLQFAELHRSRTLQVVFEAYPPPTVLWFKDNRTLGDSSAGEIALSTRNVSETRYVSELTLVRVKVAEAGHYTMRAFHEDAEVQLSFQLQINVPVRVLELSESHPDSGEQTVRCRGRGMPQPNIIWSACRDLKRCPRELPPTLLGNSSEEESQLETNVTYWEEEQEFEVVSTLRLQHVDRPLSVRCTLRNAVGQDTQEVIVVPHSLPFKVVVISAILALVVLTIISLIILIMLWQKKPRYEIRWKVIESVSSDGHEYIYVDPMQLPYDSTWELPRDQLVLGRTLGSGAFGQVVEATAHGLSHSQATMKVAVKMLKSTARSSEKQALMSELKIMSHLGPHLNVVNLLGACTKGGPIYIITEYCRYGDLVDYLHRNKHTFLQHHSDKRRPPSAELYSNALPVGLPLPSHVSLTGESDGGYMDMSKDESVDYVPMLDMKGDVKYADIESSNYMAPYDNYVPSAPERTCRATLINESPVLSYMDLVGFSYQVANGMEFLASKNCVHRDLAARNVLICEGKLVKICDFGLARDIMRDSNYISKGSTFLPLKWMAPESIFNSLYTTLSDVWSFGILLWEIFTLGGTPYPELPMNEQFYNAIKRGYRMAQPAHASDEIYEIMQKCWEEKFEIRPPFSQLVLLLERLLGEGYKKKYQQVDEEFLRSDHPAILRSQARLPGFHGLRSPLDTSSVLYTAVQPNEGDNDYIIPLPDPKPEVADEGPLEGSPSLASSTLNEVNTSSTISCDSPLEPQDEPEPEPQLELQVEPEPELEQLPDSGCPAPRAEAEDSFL
# Procedure: as §1
# FLT3 = molecular target: T3, FLT3 (Homo sapiens, UniProt P36888); test: Competition binding assay, FLT3 Kd
# T3 construct: made in house
# T3 sequence (P36888 27-993): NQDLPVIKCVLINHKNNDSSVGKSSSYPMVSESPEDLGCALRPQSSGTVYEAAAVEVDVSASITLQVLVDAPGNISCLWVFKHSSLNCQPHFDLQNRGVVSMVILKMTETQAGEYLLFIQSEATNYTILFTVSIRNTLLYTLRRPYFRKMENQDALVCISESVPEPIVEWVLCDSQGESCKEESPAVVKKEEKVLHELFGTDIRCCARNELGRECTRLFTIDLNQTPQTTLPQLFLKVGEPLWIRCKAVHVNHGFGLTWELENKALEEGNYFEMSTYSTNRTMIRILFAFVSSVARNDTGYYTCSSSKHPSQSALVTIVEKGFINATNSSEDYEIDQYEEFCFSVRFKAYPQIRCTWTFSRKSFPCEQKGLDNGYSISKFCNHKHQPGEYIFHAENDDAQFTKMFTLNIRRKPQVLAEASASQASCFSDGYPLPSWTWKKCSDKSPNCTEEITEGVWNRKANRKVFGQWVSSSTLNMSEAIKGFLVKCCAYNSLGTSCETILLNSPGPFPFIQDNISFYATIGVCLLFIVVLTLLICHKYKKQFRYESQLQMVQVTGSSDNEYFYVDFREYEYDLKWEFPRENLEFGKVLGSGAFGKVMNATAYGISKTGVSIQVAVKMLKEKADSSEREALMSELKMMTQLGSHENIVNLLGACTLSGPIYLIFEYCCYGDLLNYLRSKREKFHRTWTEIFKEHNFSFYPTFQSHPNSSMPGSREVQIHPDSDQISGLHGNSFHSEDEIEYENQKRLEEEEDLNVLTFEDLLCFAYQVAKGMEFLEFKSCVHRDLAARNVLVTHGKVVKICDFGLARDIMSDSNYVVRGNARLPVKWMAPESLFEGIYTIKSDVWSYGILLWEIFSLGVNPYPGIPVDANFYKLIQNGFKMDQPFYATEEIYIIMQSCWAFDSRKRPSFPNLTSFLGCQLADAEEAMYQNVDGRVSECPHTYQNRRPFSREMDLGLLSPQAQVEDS
# Procedure: as §1
# KIT = molecular target: T4, KIT (Homo sapiens, UniProt P10721); test: Competition binding assay, KIT Kd
# T4 construct: made in house
# T4 sequence (P10721 26-976): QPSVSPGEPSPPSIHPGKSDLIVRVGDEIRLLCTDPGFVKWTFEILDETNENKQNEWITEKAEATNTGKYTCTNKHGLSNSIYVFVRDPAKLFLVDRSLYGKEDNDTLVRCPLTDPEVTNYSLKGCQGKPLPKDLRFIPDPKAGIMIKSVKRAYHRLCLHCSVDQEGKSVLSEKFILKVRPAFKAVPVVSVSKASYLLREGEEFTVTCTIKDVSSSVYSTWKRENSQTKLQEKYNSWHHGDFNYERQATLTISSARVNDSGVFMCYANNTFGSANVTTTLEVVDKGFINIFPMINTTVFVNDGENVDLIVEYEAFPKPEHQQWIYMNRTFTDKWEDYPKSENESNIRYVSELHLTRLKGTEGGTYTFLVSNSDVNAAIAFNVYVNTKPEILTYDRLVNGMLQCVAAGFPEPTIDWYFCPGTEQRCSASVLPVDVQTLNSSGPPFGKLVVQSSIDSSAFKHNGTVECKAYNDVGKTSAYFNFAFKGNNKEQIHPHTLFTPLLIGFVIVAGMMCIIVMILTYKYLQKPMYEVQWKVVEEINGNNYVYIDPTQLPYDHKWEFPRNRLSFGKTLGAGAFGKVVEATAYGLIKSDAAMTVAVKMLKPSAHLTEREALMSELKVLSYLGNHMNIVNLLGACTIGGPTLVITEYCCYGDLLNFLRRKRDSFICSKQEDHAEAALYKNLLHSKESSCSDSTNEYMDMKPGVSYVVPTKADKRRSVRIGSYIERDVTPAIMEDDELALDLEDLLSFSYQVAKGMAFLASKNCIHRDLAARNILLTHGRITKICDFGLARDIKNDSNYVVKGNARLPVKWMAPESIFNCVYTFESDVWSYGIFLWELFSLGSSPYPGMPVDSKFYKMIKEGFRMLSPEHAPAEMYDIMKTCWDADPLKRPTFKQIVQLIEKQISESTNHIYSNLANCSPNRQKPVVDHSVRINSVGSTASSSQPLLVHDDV
# Procedure: as §1
# M-NFS-60 cells = test: M-NFS-60 cell proliferation assay (Alamar Blue); type: cell-based, mouse; settings: Mus musculus, read-out: CSF1R M-NFS-60 CTB:IC50
# Procedure: The compounds disclosed herein were tested in an M-NFS-60 cell proliferation assay to determine their cellular potency against CSF1R. M-NFS-60s are mouse monocytic cells that depend on the binding of the ligand M-CSF to its receptor, CSF1R, to proliferate. Inhibition of CSF1R kinase activity will cause reduced growth and/or cell death. This assay assesses the potency of compounds as CSF1R inhibitors by measuring the reduction of Alamar Blue reagent by viable cells.
# On day one of the experiment, M-NFS-60 cells were maintained in RPMI complete medium (Omega Scientific) plus 10% FBS supplemented with 20 ng/mL of M-CSF (R&D Systems). 96-well TC-treated, flat bottom plates were seeded at 10,000 cell/well at a volume of 100 μL per well. The cells were cultured overnight at 37° C. under 5% CO2.
# On day two, compounds were added to the cells at 9 different concentrations, with half-log intervals alongside a control reference compound serving as a positive control. Final DMSO concentration was kept at 0.5% for a final volume of 200 μL. The compounds were allowed to incubate with the cells for 72 hours at 37° C. under 5% CO2.
# On day five of the experiment, 40 μl of Alamar Blue reagent was added to each well and allowed to incubate for 3 hours. Alamar Blue fluorescence was read using SoftMax Pro software at 560 nm (excitation) and 590 nm (emission). IC50s were generated as an average of duplicates and represents the concentration of test compound that achieves 50% inhibition of cellular proliferation compared to control.
# CSF1R [2] = molecular target: T1, CSF1R; test: HEK293 CSF1R phosphorylation MSD assay; type: cell-based; parameters: expressed in transfected cells; host or cells: HEK293; settings: read-out: HEK293 pCSF1R M-CSF MSD:IC50
# Procedure: The compounds disclosed herein were tested in a CSF1R phosphorylation assay to determine their cellular potency against CSF1R. A HEK293 cell line expressing CSF1R fused to FK506 binding protein (FKBP) as a molecular tag was generated. Inhibition of CSF1R kinase activity will prevent ligand-stimulated autophosphorylation of the CSF1R-FKBP in intact cells. Subsequent cell lysates are assayed in a sandwich ELISA employing the electrochemiluminescent Meso Scale Discovery (MSD) technology for the presence of the phosphorylated (p)CSF1R-FKBP. This assay determines the potency of compounds as CSF1R inhibitors by measuring the reduction in the amount of pCSF1R with increasing doses of compounds added to the cells prior to M-CSF stimulation.
# On day one of the experiment, HEK293-CSF1R-FKPB cells, maintained in DMEM, with L-glutamine (Mediatech), 10% FBS, and 100 units/mL Penicillin/Streptomycin, were seeded at 50,000 cell/well in a volume of 100 μL per well in 96-well Cell Bind plates (Costar). The cells were cultured overnight at 37° C. under 5% CO2. To prepare the plates used in the MSD assay, a 330 nM biotin-FK506 (in TBS pH 7.2) solution was added at 30 μL per well to streptavidin-coated 96-well plates (MSD), and incubated overnight at room temperature, shaking at 500 rpm on an orbital shaker.
# On day two, compounds diluted in DMSO were added to the cells in duplicate plates at 9 different concentrations with half-log intervals, plus DMSO only control, alongside a reference compound serving as a positive control. Final DMSO concentration was 0.5% in a volume of 200 μL per well. The compounds were allowed to incubate with the cells for 2 h at 37° C. under 5% CO2. At the end of the incubation, human M-CSF (R&D Systems) was added for 5 min to a final concentration of 50 ng/mL to stimulate CSF1R phosphorylation. Cells were lysed for 20 min, and the lysates were applied to the washed, FK506-coated MSD plates, and incubated overnight at 4° C. shaking at 500 rpm.
# On day three, the MSD plates were washed, and the captured CSF1R-FKBP was assayed sequentially for phosphorylation using mouse anti-phosphotyrosine antibody (Millipore) and Sulfo-TAG goat anti-mouse IgG antibody (MSD), and detected on a Sector Imager 6000 instrument (MSD).
# A single IC50 value for each compound was determined by averaging the IC50s of the duplicates calculated using Igor Pro 6 software, and represents the compound concentration that achieves a 50% inhibition of ligand-induced CSF1R phosphorylation compared to DMSO control.
# [3] = 72 hours incubation, M-CSF 20 ng/mL
# [4] = 2 h compound, human M-CSF 50 ng/mL for 5 min
# T1 sequence (P07333 20-972): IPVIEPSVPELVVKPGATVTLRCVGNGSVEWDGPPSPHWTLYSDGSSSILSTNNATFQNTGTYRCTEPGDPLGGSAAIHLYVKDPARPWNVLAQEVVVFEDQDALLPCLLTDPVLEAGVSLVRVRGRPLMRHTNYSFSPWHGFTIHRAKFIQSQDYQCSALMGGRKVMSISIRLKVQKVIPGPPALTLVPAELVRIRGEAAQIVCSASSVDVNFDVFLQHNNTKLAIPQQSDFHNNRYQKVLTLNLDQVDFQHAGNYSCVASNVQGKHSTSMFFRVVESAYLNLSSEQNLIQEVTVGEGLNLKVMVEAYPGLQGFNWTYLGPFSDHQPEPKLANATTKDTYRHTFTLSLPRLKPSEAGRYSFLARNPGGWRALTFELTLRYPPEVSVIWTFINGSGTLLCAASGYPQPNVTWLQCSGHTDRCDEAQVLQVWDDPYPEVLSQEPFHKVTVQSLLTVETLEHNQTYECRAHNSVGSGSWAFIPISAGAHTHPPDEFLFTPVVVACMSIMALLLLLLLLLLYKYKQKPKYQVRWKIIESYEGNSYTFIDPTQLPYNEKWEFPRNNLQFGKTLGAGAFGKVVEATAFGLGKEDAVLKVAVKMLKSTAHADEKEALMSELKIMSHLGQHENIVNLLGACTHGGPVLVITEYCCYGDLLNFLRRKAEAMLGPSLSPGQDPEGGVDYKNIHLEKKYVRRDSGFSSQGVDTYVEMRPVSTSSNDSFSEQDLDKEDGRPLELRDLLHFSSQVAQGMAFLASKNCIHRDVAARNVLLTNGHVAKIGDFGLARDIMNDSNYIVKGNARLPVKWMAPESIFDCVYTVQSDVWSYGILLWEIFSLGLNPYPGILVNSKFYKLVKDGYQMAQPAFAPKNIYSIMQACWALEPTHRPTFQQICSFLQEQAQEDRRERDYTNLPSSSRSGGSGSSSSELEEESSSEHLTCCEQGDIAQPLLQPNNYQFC
Structure (SMILES),pKd (CSF1R [1]),pKd (PDGFRβ),pKd (FLT3),pKd (KIT),pIC50 (CSF1R [2]; [4]),pKd (CSF1R [1]; competition binding),pKd (PDGFRβ; competition binding),pKd (FLT3; competition binding),pKd (KIT; competition binding),"pIC50 (CSF1R [2]; HEK293 cells, M-CSF stimulated CSF1R phosphorylation, MSD)",pIC50 (M-NFS-60 cells; [3]),pIC50 (M-NFS-60 cells; M-NFS-60 cell proliferation)
"COc1cc2ncn(Cc3ccc4nc(N[C@@H]5c6ccccc6C[C@@H]5O)sc4c3)c2cc1OC [Example 10, (1R,2S)-1-((6-((5,6-dimethoxy-1H-benzo[d]imidazol-1-yl)methyl)benzo[d]thiazol-2-yl)amino)-2,3-dihydro-1H-inden-2-ol]",7.70 to 8.30,6.30 to 7.30,5.30 to 6.00,5.70 to 6.30,6.30 to 6.70,,,,,,5.82 to 6.40,
"COc1cc2ncn(Cc3ccc4nc(NC5CCOCC5)sc4c3)c2cc1OC [Example 15, 6-((5,6-dimethoxy-1H-benzo[d]imidazol-1-yl)methyl)-N-(tetrahydro-2H-pyran-4-yl)benzo[d]thiazol-2-amine]",7.30 to 7.70,< 5.70,< 5.30,5.70 to 6.30,6.30 to 6.70,,,,,,< 5.82,
"COc1cc2ncn(Cc3ccc4nc(NC5CCCCC5)sc4c3)c2cc1OC [Example 18, N-cyclohexyl-6-((5,6-dimethoxy-1H-benzo[d]imidazol-1-yl)methyl)benzo[d]thiazol-2-amine]",≥ 8.30,≥ 7.30,≥ 6.70,≥ 7.00,≥ 7.30,,,,,,6.40 to 7.30,
"O[C@@H]1CCCC[C@H]1Nc1nc2ccc(Cc3c[nH]c4ncccc34)cc2s1 [Example 17, (1R,2R)-2-((6-((1H-pyrrolo[2,3-b]pyridin-3-yl)methyl)benzo[d]thiazol-2-yl)amino)cyclohexanol]",7.70 to 8.30,6.30 to 7.30,6.00 to 6.70,< 5.70,6.30 to 6.70,,,,,,5.82 to 6.40,

# More lines, main results first:
pKd (CSF1R [1]),pKd (PDGFRβ),pKd (FLT3),pKd (KIT),pIC50 (CSF1R [2]; [4]),pKd (CSF1R [1]; competition binding),pKd (PDGFRβ; competition binding),pKd (FLT3; competition binding),pKd (KIT; competition binding),"pIC50 (CSF1R [2]; HEK293 cells, M-CSF stimulated CSF1R phosphorylation, MSD)",Structure (SMILES),pIC50 (M-NFS-60 cells; [3]),pIC50 (M-NFS-60 cells; M-NFS-60 cell proliferation)
,,,,,7.70 to 8.30,6.30 to 7.30,6.00 to 6.70,6.30 to 7.00,6.70 to 7.30,"CN(C)CC(=O)c1cnc2c(c1)ncn2Cc1ccc2nc(N[C@@H]3CCCC[C@H]3O)sc2c1 [Example 116, 2-(dimethylamino)-1-(3-((2-(((1R,2R)-2-hydroxycyclohexyl)amino)benzo[d]thiazol-6-yl)methyl)-3H-imidazo[4,5-b]pyridine-6-yl)ethanone acetate salt]",,< 5.82
7.70 to 8.30,6.30 to 7.30,5.30 to 6.00,6.30 to 7.00,≥ 7.30,,,,,,"COc1ccc2c(c1)ncn2Cc1ccc2nc(N[C@@H]3CCCC[C@H]3O)sc2c1 [Example 68, (1R,2R)-2-((6-((5-methoxy-1H-benzo[d]imidazol-1-yl)methyl)benzo[d]thiazol-2-yl)amino)cyclohexanol]",≥ 7.30,
≥ 8.30,6.30 to 7.30,5.30 to 6.00,≥ 7.00,6.70 to 7.30,,,,,,"COc1ccccc1Nc1nc2ccc(Cn3cnc4cc(OC)c(OC)cc43)cc2s1 [Example 30, 6-((5,6-dimethoxy-1H-benzo[d]imidazol-1-yl)methyl)-N-(2-methoxyphenyl)benzo[d]thiazol-2-amine]",6.40 to 7.30,
7.70 to 8.30,6.30 to 7.30,5.30 to 6.00,6.30 to 7.00,6.70 to 7.30,,,,,,"N=C(NO)c1cnc2c(c1)ncn2Cc1ccc2nc(N[C@@H]3CCCC[C@H]3O)sc2c1 [Example 90, N-hydroxy-3-((2-(((1R,2R)-2-hydroxycyclohexyl)amino)benzo[d]thiazol-6-yl)methyl)-3H-imidazo[4,5-b]pyridine-6-carboximidamide]",6.40 to 7.30,
< 7.30,< 5.70,< 5.30,< 5.70,6.30 to 6.70,,,,,,"COc1cc2ncn(Cc3ccc4nc(NCc5ccncc5)sc4c3)c2cc1OC [Example 21, 6-((5,6-dimethoxy-1H-benzo[d]imidazol-1-yl)methyl)-N-(pyridin-4-ylmethyl)benzo[d]thiazol-2-amine]",< 5.82,
7.70 to 8.30,5.70 to 6.30,< 5.30,< 5.70,6.70 to 7.30,,,,,,"O[C@@H]1CCCC[C@H]1Nc1nc2ccc(Cn3cnc4cnccc43)cc2s1 [Example 72, (1R,2R)-2-((6-((1H-imidazo[4,5-c]pyridin-1-yl)methyl)benzo[d]thiazol-2-yl)amino)cyclohexanol]",5.82 to 6.40,

# Source: patent publication US9938261B2, “Heterocyclic compounds and methods of use thereof” (AMBIT BIOSCIENCES CORPORATION, priority 2011, dated 2018)
